Marks after values point to notes of the source that are not given here.
Columns and labels:
ovine blastocysts = test: Total number of blastocyst cells (DAPI staining) after in vitro maturation of ovine oocytes; format: cell-based, sheep; conditions: ovine 7d blastocysts, FIG. 3
Description: FIG. 3 Statistical analysis of the total number of blastocyst cells after different treatments of sheep oocyte in vitro maturation. Among them, the control group is a routine in vitro maturation group, and treatment groups 1-7 are: VitC alone group, L-carnitine alone group, THPO alone group, VitC and L-carnitine combined administration group, VitC and THPO combined administration group, L-carnitine and THPO combined administration group, VitC, L-carnitine, and THPO combined administration group. The total number of blastocyst cells were obtained by counting cells after DAPI immunofluorescence staining.
(§1) • Control group: a routine in vitro maturation group. • Treatment group 1: a VitC (100 μg/mL)—only administration group. • Treatment group 2: an L-carnitine (1 mg/mL)—only administration group. • Treatment group 3: a THPO (200 ng/mL)—only administration group. • Treatment group 4: a VitC (50 μg/mL) and L-carnitine (500 μg/mL) combined administration group. • Treatment group 5: a VitC (50 μg/mL) and THPO (100 ng/ml) combined administration group. • Treatment group 6: an L-carnitine (500 μg/mL) and THPO (100 ng/ml) combined administration group. • Treatment group 7: a VitC (33.3 μg/mL), L-carnitine (333.3 μg/mL), and THPO (66.7 ng/mL) combined administration group.
The 7d blastocysts were collected, washed 3 times with PBS containing 1 mg/ml PVA (PBS-PVA), and stained with DAPI, and the total blastocyst cell number was then determined. Specifically, the zona pellucida was removed with Tyrode's medium, and the blastocysts were then fixed in PBS containing 4% polyformaldehyde for 30 min and permeabilized using PBS containing 0.5% TritonX-100 for 20 min at room temperature. The nuclei of the blastocysts were stained with 1 μg/mL DAPI, incubated for 5 min in the dark, and then mounted onto slides. DAPI cells were observed and counted under a fluorescence microscope.

bovine recipients = test: Bovine embryo transfer and pregnancy rate assessment; format: in vivo; conditions: for Number of pregnancies: B-mode ultrasonography days 45-50; for Pregnancy rate (%): days 45-50, pregnant/recipient female animals
Description: (§2) • Control group: a routine in vitro maturation group; • Treatment group 1: a VitC (100 μg/mL)—only administration group; • Treatment group 2: an L-carnitine (1 mg/mL)—only administration group; • Treatment group 3: a THPO (200 ng/mL)—only administration group; • Treatment group 4: a VitC (50 μg/mL) and L-carnitine (500 μg/mL) combined administration group; • Treatment group 5: a VitC (50 μg/mL) and THPO (100 ng/ml) combined administration group; • Treatment group 6: an L-carnitine (500 μg/mL) and THPO (100 ng/mL) combined administration group; • Treatment group 7: a VitC (33.3 μg/mL), L-carnitine (333.3 μg/mL), and THPO (66.7 ng/mL) combined administration group.
The bovine recipients were restrained and anesthetized according to requirement of sartificial insemination. After the vulva was cleaned and disinfected, the cervix was opened and the fallopian tubes were flushed. The embryo transfer catheter was inserted deep into one uterine horn using the rectal palpation method. The plunger of a syringe connected to embryos transfer catheter was pushed to inject the embryos that had developed to the blastocyst stage after in vitro fertilization, and the embryo transfer catheter was then withdrawn. The pregnancy status was assessed by B-mode ultrasonography on days 45-50 of pregnancy, and the pregnancy rate was calculated.

[1] = system: ovine oocytes (cumulus-oocyte complexes); test: In vitro maturation of ovine oocytes, in vitro fertilization and embryo culture: embryo development rate; format: cell-based, sheep; conditions: mean ± standard error; for Cleavage rate (%): 48 h after IVF, modulators added to in vitro maturation medium; for D7 blastocyst rate (%): day 7 of culture
Description: Ovine ovaries were collected in a slaughterhouse, placed in normal saline at 35° C., and transported to the laboratory within 2 h. The ovaries were washed three times with normal saline, and follicles were punctured using a 20 G needle containing 5 mL of oocyte collection medium to release cumulus-oocyte complexes. The COCs with uniform cytoplasm and at least 3 layers of cumulus cells were collected Under a stereomicroscope.
as §1
(§3) The control group was a basal in vitro maturation medium, and the treatment groups (1-7) were prepared by adding different components or combined components to the basal maturation medium.
The collected ovine oocytes were washed three times with washing medium, then washed 3 times with the basal in vitro oocyte maturation medium pre-equilibrated for 3 h in advance, transferred to the in vitro maturation culture mediums of the control and experimental groups, and incubated in a 5% CO2, 38.5° C. incubator with saturated humidity for 22-24 h. Four-well plates were used for culture, and each well contained 600 μL of in vitro maturation culture medium and 30-35 ovine cumulus-oocyte complexes, and was covered with 300 μL of mineral oil. In vitro maturation of ovine oocytes was performed according to different groups.
For the control group, the basal in vitro oocyte maturation medium was used. The basal in vitro oocyte maturation medium was prepared as follows: TCM199+10% estrus ovine serum+1 μg/mL follicle-stimulating hormone+1 μg/mL luteinizing hormone+1 μg/mL β-estradiol+12 μg/mL DL-cysteine+100 μg/mL streptomycin+100 IU/mL penicillin.
After in vitro maturation, the matured oocytes were subjected to in vitro fertilization (IVF). Briefly, COCs were washed three times in synthetic oviductal fluid (SOF) medium with 0.2% hyaluronidase to remove cumulus cells and transferred into the IVF medium, which consisted of synthetic oviduct fluid (SOF) medium containing 2% estrus sheep serum (ESS), 3 mg/mL BSA, 6 IU/mL heparin sodium and 50 IU/mL gentamicin. For IVF, frozen semen was removed from the liquid nitrogen and thawed in a water bath at 39° C. for 1 min. Then, the sperm diluted with IVF medium and swimming up for 30 min at 38.5° C. in a humidified atmosphere at 5% CO2. The upper layer of semen was transferred into a 1.5 mL tube and then centrifuge for 5 min at 2000 rpm. The spermatozoa were carefully collected from the bottom of the centrifuge tube and added into each IVF medium with a final concentration of approximately 1×10^6 sperm/mL. Then, the oocyte and sperm were co-incubated for 20 h at 38.5° C. with 5% CO2 in a humidified atmosphere. All reagents were purchased from Sigma-Aldrich.
After IVF, presumptive zygotes were washed three times in IVC medium and then transferred to SOF medium supplemented with 1% BME-essential amino acids, 1% MEM-nonessential amino acids, 1 mM glutamine and 3 mg/mL BSA and cultured at 38.6° C. in a humidified environment with an 88% N2, 5% CO2, 7% O2. The cleavage rate and blastocyst rate were recorded at 48 h and 6-7 d after IVF. After 48 h of culture, the cleavage rate was calculated. The culture was continued until day 7, and the blastocyst rate was calculated.

recipient ewes = test: Ovine embryo transfer and pregnancy assessment; format: in vivo, sheep; conditions: for Pregnancy rate (%): 45 d after embryo transfer; for Number of pregnancies: B-ultrasonography 45 d after embryo transfer
Description: as §1
Transferrable embryo were selected and one blastocyst was transferred into recipient ewes using a laparoscopic procedure. Prior to embryo transfer, the ewes were fasted for at least 20 h. The embryos were transplanted into recipients with an assistant of endoscopic apparatus. The conception was detected at 45 d after embryo transfer by using B-ultrasonography and the embryo transfer pregnancy rate was calculated using the formula: […]

bovine oocytes (COCs) = test: In vitro maturation of bovine oocytes, in vitro fertilization and embryo culture: embryo development rate; format: cell-based; conditions: for D8 blastocyst rate (%): 8 d postinsemination, number of blastocysts/number of oocytes; for effect on 48-h cleavage rate compared with the control group / effect on blastocyst development efficiency compared with the control group: in words; for 48-h cleavage rate (%): number of two-cell embryos/number of oocytes
Description: as §2, §3
Bovine ovaries were collected from a local slaughterhouse (Dachang Hui Autonomous County, Hebei Province, China) and transported to the laboratory within two hours in saline solution containing penicillin and streptomycin. In the laboratory, bovine COCs were aspirated from follicles with a diameter of 2-8 mm to M199-HEPES containing 20 μg/mL heparin sodium, 44 μg/mL sodium pyruvate, 70 μg/mL penicillin and 50 μg/mL streptomycin. The aspirated follicular fluid was placed in 50 ml conical tubes and maintained for a period for sedimentation. The upper portion of the liquid was removed and the remaining portion was then transferred to wash buffer. COCs with a homogenous, evenly granulated ooplasm surrounded by at least three layers of compact cumulus cells were selected under a stereomicroscope for experiments. COCs were washed three times in BO-IVM medium and incubated for 22 h at 38.5° C. in a humidified atmosphere under 5% CO2 in groups of 50 containing 500 μL BO-IVM medium in four-well dishes covered with mineral oil.
After 22 h of IVM, 20 COCs were transferred to 100 μL BO-IVF medium covered with mineral oil in Petri dish (60×15 mm). Frozen-thawed sperm was purified using BO-SemenPrep. Spermatozoa were selected by Percoll method and the final concentration was adjusted to 1×10^6 in each drop. They were co-incubated in BO-IVF medium with humidified 5% CO2 in air at 38.5° C. for 18 h. Thereafter, the presumptive zygotes were transferred to BO-IVC medium in four-well dishes covered with mineral oil, and incubated with humidified 5% CO2 in air at 38.5° C. for 8 days. The cleavage rate was determined at 48 h and the blastocyst rate was estimated at 8d postinsemination.

Compound | total number of blastocyst cells (ovine blastocysts) | Number of pregnancies (bovine recipients) | Pregnancy rate (%) (bovine recipients) | Cleavage rate (%) [1] | D7 blastocyst rate (%) [1] | Pregnancy rate (%) (recipient ewes) | Number of pregnancies (recipient ewes) | D8 blastocyst rate (%) (bovine oocytes (COCs)) | effect on 48-h cleavage rate compared with the control group (bovine oocytes (COCs)) | effect on blastocyst development efficiency compared with the control group (bovine oocytes (COCs)) | 48-h cleavage rate (%) (bovine oocytes (COCs)) | effect on pregnancy rate after embryo transfer compared with the control group (bovine recipients; in words)
O=C1O[C@H]([C@@H](O)CO)C(O)=C1O [Treatment group 1, vitamin C] | 80.6±3.2 | 11 | 42.3%^a | 75.64 ± 2.83^a % | 38.79 ± 1.97^b % | 50.0^a % | 25 | 33.1 ± 1.3^b % | did not affect | enhanced | 68.7 ± 3.1 | 
C[N+](C)(C)C[C@H](O)CC(=O)[O-] [Treatment group 2, L-carnitine] | 82.6±2.7 | 12 | 46.2%^b | 74.32 ± 2.31^a % | 37.61 ± 1.85^b % | 54.2^a % | 26 | 32.4 ± 0.8^b % | did not affect | enhanced | 69.5 ± 4.3 | can improve
Thrombopoietin [Treatment group 3] | 79.4±2.3 | 11 | 42.3%^a | 75.38 ± 2.43^a % | 38.01 ± 1.50^b % | 53.1^a % | 26 | 32.2 ± 2.0^b % |  |  | 67.4 ± 3.8 | 
